Laboratory results as given in PMC3961306, “Comparison of the Cancer Gene Targeting and Biochemical Selectivities of All Targeted Kinase Inhibitors Approved for Clinical Use” (PLoS ONE, 2014).
Where two headings read alike, the source gives them in different places.

How the values were obtained:
[1] = target: T1, panel of more than 300 wild-type and mutant kinases (313 kinase panel) (Homo sapiens, UniProt Q96PF2); assay: Kinase profiling in a biochemical assay panel (mobility shift assays and ELISA), %-inhibition at 1 μM; selectivity entropy; settings: kinase TSSK2; 1 μM
T1 sequence (Q96PF2 1-358): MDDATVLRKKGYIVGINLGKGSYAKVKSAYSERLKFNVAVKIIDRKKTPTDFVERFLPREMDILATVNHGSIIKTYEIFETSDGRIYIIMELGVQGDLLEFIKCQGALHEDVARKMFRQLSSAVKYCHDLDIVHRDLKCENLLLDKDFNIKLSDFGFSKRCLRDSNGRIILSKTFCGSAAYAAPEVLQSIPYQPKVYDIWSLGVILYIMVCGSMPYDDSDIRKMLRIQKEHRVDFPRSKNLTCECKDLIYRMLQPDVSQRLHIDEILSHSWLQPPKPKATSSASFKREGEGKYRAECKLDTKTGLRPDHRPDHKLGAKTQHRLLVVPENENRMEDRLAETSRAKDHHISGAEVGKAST

[2] = target: panel of more than 300 wild-type and mutant kinases (313 kinase panel) (Homo sapiens, UniProt Q15303); assay: as above; settings: kinase HER4; compound at 1 μM
[3] = target: panel of more than 300 wild-type and mutant kinases (313 kinase panel) (Homo sapiens, UniProt Q13177); assay: as above; settings: kinase PAK2; 1 μM
[4] = target: T2, panel of more than 300 wild-type and mutant kinases (313 kinase panel) (Homo sapiens, UniProt O14920); assay: as above; settings: kinase IKKβ; compound at 1 μM
T2 sequence (O14920 1-756): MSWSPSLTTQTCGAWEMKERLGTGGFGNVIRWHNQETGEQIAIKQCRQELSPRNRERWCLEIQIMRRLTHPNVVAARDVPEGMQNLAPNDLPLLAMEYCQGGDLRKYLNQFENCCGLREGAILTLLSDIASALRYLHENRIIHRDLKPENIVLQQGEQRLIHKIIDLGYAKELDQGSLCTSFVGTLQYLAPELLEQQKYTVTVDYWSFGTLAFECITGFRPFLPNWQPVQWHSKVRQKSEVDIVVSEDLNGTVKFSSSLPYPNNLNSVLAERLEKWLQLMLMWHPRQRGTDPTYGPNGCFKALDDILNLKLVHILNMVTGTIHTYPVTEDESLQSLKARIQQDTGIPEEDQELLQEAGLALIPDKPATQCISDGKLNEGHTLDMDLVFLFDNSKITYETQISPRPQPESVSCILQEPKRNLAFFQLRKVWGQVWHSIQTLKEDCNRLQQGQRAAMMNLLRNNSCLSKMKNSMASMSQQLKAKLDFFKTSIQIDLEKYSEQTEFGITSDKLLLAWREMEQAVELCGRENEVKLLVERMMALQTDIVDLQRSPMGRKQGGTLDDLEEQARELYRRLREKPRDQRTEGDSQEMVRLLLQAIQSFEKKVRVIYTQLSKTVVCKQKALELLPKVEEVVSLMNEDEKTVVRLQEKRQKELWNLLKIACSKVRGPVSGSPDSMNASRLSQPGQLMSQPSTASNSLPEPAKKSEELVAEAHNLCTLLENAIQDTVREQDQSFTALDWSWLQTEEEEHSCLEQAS

[5] = test system: forty-four human cancer cell lines; assay: Cell proliferation assay (ATPlite, 72 hours) in the 44 cell line Oncolines panel; format: cell-based; settings: Homo sapiens

Sequence of panel of more than 300 wild-type and mutant kinases (313 kinase panel) (Homo sapiens, UniProt Q15303) (Q15303 26-1308, change not shown): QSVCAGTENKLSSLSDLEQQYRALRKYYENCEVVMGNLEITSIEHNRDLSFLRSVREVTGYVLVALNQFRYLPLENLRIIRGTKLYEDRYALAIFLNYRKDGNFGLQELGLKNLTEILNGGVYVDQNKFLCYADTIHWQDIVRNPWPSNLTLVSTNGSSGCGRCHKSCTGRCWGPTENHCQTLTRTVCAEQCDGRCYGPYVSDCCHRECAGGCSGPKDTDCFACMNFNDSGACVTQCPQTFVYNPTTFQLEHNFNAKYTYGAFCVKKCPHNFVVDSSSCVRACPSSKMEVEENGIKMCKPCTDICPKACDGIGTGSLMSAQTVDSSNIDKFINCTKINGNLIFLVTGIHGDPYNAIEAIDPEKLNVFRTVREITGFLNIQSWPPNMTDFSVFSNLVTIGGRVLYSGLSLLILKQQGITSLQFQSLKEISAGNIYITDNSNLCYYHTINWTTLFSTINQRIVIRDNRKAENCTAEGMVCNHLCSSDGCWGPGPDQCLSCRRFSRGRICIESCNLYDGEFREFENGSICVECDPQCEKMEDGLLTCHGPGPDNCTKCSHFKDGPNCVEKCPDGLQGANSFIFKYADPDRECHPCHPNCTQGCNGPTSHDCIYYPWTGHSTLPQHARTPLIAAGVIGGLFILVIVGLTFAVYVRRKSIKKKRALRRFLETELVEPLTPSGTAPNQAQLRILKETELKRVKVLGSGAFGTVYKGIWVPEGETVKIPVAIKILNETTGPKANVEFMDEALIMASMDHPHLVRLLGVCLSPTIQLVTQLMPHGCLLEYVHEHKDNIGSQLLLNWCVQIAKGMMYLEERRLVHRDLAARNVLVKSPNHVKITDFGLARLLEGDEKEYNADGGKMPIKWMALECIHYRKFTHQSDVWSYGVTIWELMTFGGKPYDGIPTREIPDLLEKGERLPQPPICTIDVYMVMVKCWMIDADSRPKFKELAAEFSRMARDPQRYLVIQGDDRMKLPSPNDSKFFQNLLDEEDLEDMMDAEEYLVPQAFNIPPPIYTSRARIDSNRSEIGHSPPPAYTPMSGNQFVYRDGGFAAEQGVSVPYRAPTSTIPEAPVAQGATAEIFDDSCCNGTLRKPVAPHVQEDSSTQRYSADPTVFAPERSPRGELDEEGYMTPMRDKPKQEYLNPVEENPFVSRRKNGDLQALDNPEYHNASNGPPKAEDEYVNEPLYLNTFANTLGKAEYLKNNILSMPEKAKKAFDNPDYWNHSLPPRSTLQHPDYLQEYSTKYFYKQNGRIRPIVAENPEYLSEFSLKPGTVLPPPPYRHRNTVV

## C[C@@H](Oc1cc(-c2cnn(C3CCNCC3)c2)cnc1N)c1c(Cl)ccc(F)c1Cl [crizotinib]
[1]
  %-inhibition of TSSK2: 0.896%
[2]
  %-inhibition of HER4: -18%
[3]
  %-inhibition of PAK2: 5%
[4]
  %-inhibition of IKKβ: -5%
[5]; 4-4 cell, read-out: cell panel IC50, J82
  IC50: 5.23 µM
[5]; 4-4 cell, read-out: cell panel IC50, PA-1
  IC50: 0.888 µM
[5]; 4-4 cell, read-out: cell panel IC50, SJCRH30
  IC50: 1.09 µM
[5]; 4-4 cell, read-out: cell panel IC50, SR
  IC50: 0.044 µM
[5]; 769-P, read-out: cell panel IC50, 769-P
  IC50: 2.96 µM
[5]; 786-0, read-out: cell panel IC50, 786-0
  IC50: 3.88 µM
[5]; A 172, read-out: cell panel IC50, A-172
  IC50: 1.7 µM
[5]; A204, read-out: cell panel IC50, A-204
  IC50: 2.46 µM
[5]; A498, read-out: cell panel IC50, A-498
  IC50: 2.24 µM
[5]; A549, read-out: cell panel IC50, A-549
  IC50: 1.18 µM
[5]; A-375, read-out: cell panel IC50, A375
  IC50: 1.07 µM
[5]; A-427, read-out: cell panel IC50, A-427
  IC50: 0.672 µM
[5]; ACHN, read-out: cell panel IC50, ACHN
  IC50: 2.24 µM
[5]; AN3-CA, read-out: cell panel IC50, AN3 CA
  IC50: 1.72 µM
[5]; AU565, read-out: cell panel IC50, AU-565
  IC50: 7.79 µM
[5]; BT-20, read-out: cell panel IC50, BT-20
  IC50: 12.7 µM
[5]; BT-549, read-out: cell panel IC50, BT-549
  IC50: 4.89 µM
[5]; BXPC-3, read-out: cell panel IC50, BxPC-3
  IC50: 1.39 µM
[5]; C-33-A, read-out: cell panel IC50, C-33 A
  IC50: 3.04 µM
[5]; CAL-27, read-out: cell panel IC50, CAL 27
  IC50: 1.82 µM
[5]; CCRF-CEM, read-out: cell panel IC50, CCRF-CEM
  IC50: 0.567 µM
[5]; DLD-1, read-out: cell panel IC50, DLD-1
  IC50: 3 µM
[5]; FaDu, read-out: cell panel IC50, FaDu
  IC50: 5.34 µM
[5]; HCT-15, read-out: cell panel IC50, HCT-15
  IC50: 4.84 µM
[5]; HCT-116, read-out: cell panel IC50, HCT-116
  IC50: 1.69 µM
[5]; Hs-578T, read-out: cell panel IC50, Hs 578T
  IC50: 2.75 µM
[5]; Jurkat E6.1, read-out: cell panel IC50, Jurkat E6.1
  IC50: 1.11 µM
[5]; K562, read-out: cell panel IC50, K-562
  IC50: 0.252 µM
[5]; LS174T, read-out: cell panel IC50, LS 174T
  IC50: 0.842 µM
[5]; LoVo, read-out: cell panel IC50, LoVo
  IC50: 0.658 µM
[5]; MG-63, read-out: cell panel IC50, MG-63
  IC50: 1.73 µM
[5]; MOLT-4, read-out: cell panel IC50, MOLT-4
  IC50: 0.347 µM
[5]; NCI-H82, read-out: cell panel IC50, NCI-H82
  IC50: 0.854 µM
[5]; NCI-H460, read-out: cell panel IC50, NCI-H460
  IC50: 1.15 µM
[5]; OVCAR-3, read-out: cell panel IC50, OVCAR-3
  IC50: 4.56 µM
[5]; RPMI-7951, read-out: cell panel IC50, RPMI-7951
  IC50: 1.53 µM
[5]; SHP77, read-out: cell panel IC50, SHP-77
  IC50: 3.12 µM
[5]; SK-N-AS, read-out: cell panel IC50, SK-N-AS
  IC50: 1.31 µM
[5]; SW48, read-out: cell panel IC50, SW48
  IC50: 1.96 µM
[5]; SW480, read-out: cell panel IC50, SW480
  IC50: 3.61 µM
[5]; SW-620, read-out: cell panel IC50, SW620
  IC50: 1.33 µM
[5]; U2OS, read-out: cell panel IC50, U-2 OS
  IC50: 1.98 µM
[5]; U-87 MG, 72 h, read-out: IC50 in cell proliferation assay (table S5 cellpanel data)
  IC50: 3.91 µM
